Where “and” joins values, the source holds several entries; their conditions need not be identical. Identical values can stand only once.
Tests used:
Assay type in all cases: functional, Homo sapiens
[1] = system: U2OS; test: (§1) Here: values are normalized to the negative (DMSO; defined as 0% autophagy induction) and positive (250nM Torin1; mTOR inhibitor; defined as maximal inducer of autophagy = 100%) control compounds and represented as % of autophagy induction. […] The impact of autophagy induction on cells is complex and depends on the affected target. As such, the magnitude of a phenotype may not be equally mirrored in the %-value of autophagy induction and vice versa. The dynamics of the induction may indicate the mode of activation: e.g. activation via phosphorylation or a signaling cascade may occur fast, while activation via transcription factors may take considerably longer. […] Of note, treatment concentrations may be sub-optimal for specific compounds, leading to false negative annotations.; conditions: Culturing Media DMEM, 1 % Penicillin/Streptomycin, 10% Fetal bovin serum Add-On: No, Screening Media Control DMEM, Screening Media Samples DMEM
[2] = system: TERT-RPE1; test: as §1; conditions: Culturing Media DMEM/F12 (1:1), 1 % Penicillin/Streptomycin, 10% Fetal bovin serum Add-On: No, Screening Media Control DMEM/F12 (1:1), Screening Media Samples DMEM/F12 (1:1)
[3] = system: U2OS; test: as §1; conditions: Culturing Media DMEM, 1 % Penicillin/Streptomycin, 10% Fetal bovin serum Add-On: No, Screening Media Control DMEM, Screening Media Samples DMEM; remark: listed apart in the source
[4] = Compound Concentration 0.5 uM, Timepoint 12 hours
[5] = Compound Concentration 0.5 uM, Timepoint 24 hours
[6] = Compound Concentration 0.5 uM, Timepoint 36 hours
[7] = Compound Concentration 0.5 uM, Timepoint 60 hours
[8] = Compound Concentration 2 uM, Timepoint 12 hours
[9] = Compound Concentration 2 uM, Timepoint 24 hours
[10] = Compound Concentration 2 uM, Timepoint 36 hours
[11] = Compound Concentration 2 uM, Timepoint 60 hours
[12] = Compound Concentration 10 uM, Timepoint 12 hours
[13] = Compound Concentration 10 uM, Timepoint 24 hours
[14] = Compound Concentration 10 uM, Timepoint 36 hours
[15] = Compound Concentration 10 uM, Timepoint 60 hours

In the case of `O=C(O)CC1CCC2(CC1)CCN(c1cc(OC(F)(F)F)ccc1Cl)CC2`, the autophagy induction [1, 4] is reported as 6.893%, the autophagy induction [1, 5] is reported as 1.231% and the autophagy induction [1, 6] is reported as -59.5433%. The autophagy induction [1, 7] was -1.659%, the autophagy induction [1, 8] was 4.528% and the autophagy induction [1, 9] was 2.023%. The autophagy induction [1, 10] was -58.8057%, the autophagy induction [1, 11] was 0.09301% and the autophagy induction [1, 12] was 1.476%. It also gave an autophagy induction [1, 13] of -1.647%, an autophagy induction [1, 14] of -59.8779% and an autophagy induction [1, 15] of -1.029%. For the same molecule, the autophagy induction ([2]; Compound Concentration 0.5 uM, Timepoint 12 hours, 12 h, 0.5 µM) was 1.5088% and -4.208%, the autophagy induction ([2]; Compound Concentration 0.5 uM, Timepoint 24 hours, 24 h, 0.5 µM) was -1.371% and -2.379% and the autophagy induction ([2]; Compound Concentration 0.5 uM, Timepoint 36 hours, 36 h, 0.5 µM) was -4.319% and -4.033%. The autophagy induction ([2]; Compound Concentration 0.5 uM, Timepoint 60 hours, 60 h, 0.5 µM) was -5.803% and -6.663%, the autophagy induction ([2]; Compound Concentration 2 uM, Timepoint 12 hours, 12 h, 2 µM) was 7.834% and -3.775% and the autophagy induction ([2]; Compound Concentration 2 uM, Timepoint 24 hours, 24 h, 2 µM) was 2.312% and -6.096%. For the same molecule, the autophagy induction ([2]; Compound Concentration 2 uM, Timepoint 36 hours, 36 h, 2 µM) was -2.505% and -8.733%, the autophagy induction ([2]; Compound Concentration 2 uM, Timepoint 60 hours, 60 h, 2 µM) was -5.7463% and -9.633% and the autophagy induction ([2]; Compound Concentration 10 uM, Timepoint 12 hours, 12 h, 10 µM) was 5.943% and -1.866%. The autophagy induction ([2]; Compound Concentration 10 uM, Timepoint 24 hours, 24 h, 10 µM) was 5.6585% and -2.656%, the autophagy induction ([2]; Compound Concentration 10 uM, Timepoint 36 hours, 36 h, 10 µM) was 3.294% and -3.964% and the autophagy induction ([2]; Compound Concentration 10 uM, Timepoint 60 hours, 60 h, 10 µM) was -1.174% and -1.531%. For the same molecule, the autophagy induction [3, 4] was -7.253%, the autophagy induction [3, 5] was -0.0788% and the autophagy induction [3, 6] was -0.8569%. For the same molecule, the autophagy induction [3, 7] was -4.709%, the autophagy induction [3, 8] was -6.392% and the autophagy induction [3, 9] was -5.775%. The autophagy induction [3, 10] was -5.315%, the autophagy induction [3, 11] was -3.59% and the autophagy induction [3, 12] was -7.404%. The autophagy induction [3, 13] was -7.084%, the autophagy induction [3, 14] was -0.9405% and the autophagy induction [3, 15] was -11.9422%.

Work on `CCOC(=O)c1cc(C#N)c(N2CCC(C(=O)NS(=O)(=O)Cc3ccccc3)CC2)nc1C` yielded an autophagy induction [1, 4] of -5.45%, an autophagy induction [1, 5] of -2.451% and an autophagy induction [1, 6] of -3.099%. For the same molecule, the autophagy induction [1, 7] was -2.587%, the autophagy induction [1, 8] was 4.284% and the autophagy induction [1, 9] was 0.2818%. The autophagy induction [1, 10] was 0.3824%, the autophagy induction [1, 11] was -0.02347% and the autophagy induction [1, 12] was -3.626%. For the same molecule, the autophagy induction [1, 13] was -2.74%, the autophagy induction [1, 14] was -1.363% and the autophagy induction [1, 15] was -0.00442%. For the same molecule, the autophagy induction [2, 4] was -6.976%, the autophagy induction [2, 5] was -10.3002% and the autophagy induction [2, 6] was -8.825%. The autophagy induction [2, 7] was -14.4044%, the autophagy induction [2, 8] was -3.0862% and the autophagy induction [2, 9] was -5.808%. For the same molecule, the autophagy induction [2, 10] was -6.285%, the autophagy induction [2, 11] was -11.624% and the autophagy induction [2, 12] was -2.8574%. It also gave an autophagy induction [2, 13] of -4.514%, an autophagy induction [2, 14] of -6.439% and an autophagy induction [2, 15] of -9.708%. The autophagy induction [3, 4] was -1.238%, the autophagy induction [3, 5] was -0.869% and the autophagy induction [3, 6] was -0.6019%. It also gave an autophagy induction [3, 7] of -13.2748%, an autophagy induction [3, 8] of -11.375% and an autophagy induction [3, 9] of -8.508%. It also gave an autophagy induction [3, 10] of -7.086%, an autophagy induction [3, 11] of -3.832% and an autophagy induction [3, 12] of -0.3683%. For the same molecule, the autophagy induction [3, 13] was 1.86%, the autophagy induction [3, 14] was -9.343% and the autophagy induction [3, 15] was -16.8017%.
